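How tested: cells in 96-well plates exposed to compound for 48 hours at five concentrations. The concentration for 50% growth inhibition is given as GI50.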 Active and inactive are the calls of the source. Cut-off read from the data, not from the text of the source: active = GI50 up to about 1.1 µM and inactive = higher.
What was measured:
Test in all cases: NCI tumour cell line growth inhibition, 48 h
[1] = system: K562
[2] = system: LOX IMVI
[3] = system: SR
[4] = system: SNB-19
[5] = system: PC-3
[6] = system: OVCAR-4
[7] = system: HL-60
[8] = system: NCI-H460
[9] = system: HOP-92
[10] = system: SW-620
[11] = system: T47D
[12] = system: UO-31
[13] = system: EKVX
[14] = system: HT-29
[15] = system: NCI/ADR-RES
[16] = system: MDA-N
[17] = system: SF-295
[18] = system: SK-MEL-28
[19] = system: RPMI-8226
[20] = system: Malme-3M
[21] = system: RXF 393
[22] = system: COLO 205
[23] = system: TK-10
[24] = system: M14
[25] = system: CAKI-1
[26] = system: NCI-H226
[27] = system: A549
[28] = system: ACHN
[29] = system: CCRF-CEM
[30] = system: MDA-MB-231
[31] = system: MCF7
[32] = system: SK-MEL-2
[33] = system: UACC-257
[34] = system: SK-OV-3
[35] = system: MDA-MB-435
[36] = system: SK-MEL-5
[37] = system: OVCAR-5
[38] = system: IGROV-1
[39] = system: SNB-75
[40] = system: MOLT-4
[41] = system: NCI-H522
[42] = system: KM12
[43] = system: BT-549
[44] = system: HCT-15
[45] = system: SF-268
[46] = system: Hs-578T
[47] = system: U-251
[48] = system: 786-0
[49] = system: OVCAR-8
[50] = system: A498
[51] = system: DU-145
[52] = system: HCC 2998
[53] = system: OVCAR-3
[54] = system: UACC-62
[55] = system: HCT-116
[56] = system: NCI-H23
[57] = system: HOP-62
[58] = system: SN12C
[59] = system: SF-539

With `COc1cc(C2c3cc4c(cc3C3OC[C@@H]2C3CO)OCO4)cc(OC)c1OC` (some centres not stated) as the molecule, how does the GI50 [1] read?
Its GI50 is 24.9 µM (inactive).

And the GI50 [2]?
The GI50 was 31.2 µM (inactive).

And the GI50 [3]?
Its GI50 is 13.3 µM (inactive).

And the GI50 [4]?
Its GI50 is 57.3 µM (inactive).

And the GI50 [5]?
Its GI50 is 49.3 µM (inactive).

And the GI50 [6]?
The GI50 was 71.1 µM (inactive).

And the GI50 [7]?
Its GI50 is 2.66 µM (inactive).

And the GI50 [8]?
Its GI50 is 20.3 µM (inactive).

What about the GI50 [9] of the same molecule?
Its GI50 is > 100 µM (inactive).

And the GI50 [10]?
Its GI50 is 34 µM (inactive).

And the GI50 [11]?
Its GI50 is > 100 µM (inactive).

And the GI50 [12]?
Its GI50 is 45.4 µM (inactive).

What about the GI50 [13] of the same molecule?
Its GI50 is 41.2 µM (inactive).

And the GI50 [14]?
Its GI50 is 28.4 µM (inactive).

And the GI50 [15]?
Its GI50 is 20.1 µM (inactive).

What about the GI50 [16] of the same molecule?
Its GI50 is 8.28 µM (inactive).

And the GI50 [17]?
The GI50 was 28.8 µM (inactive).

What about the GI50 [18] of the same molecule?
The GI50 was > 100 µM (inactive).

And the GI50 [19]?
Its GI50 is 38.6 µM (inactive).

And the GI50 [20]?
The GI50 was 67.6 µM (inactive).

What about the GI50 [21] of the same molecule?
Its GI50 is 37.6 µM (inactive).

What about the GI50 [22] of the same molecule?
The GI50 was 18.4 µM (inactive).

And the GI50 [23]?
The GI50 was 37.5 µM (inactive).

What about the GI50 [24] of the same molecule?
Its GI50 is 31.3 µM (inactive).

And the GI50 [25]?
The GI50 was 78.7 µM (inactive).

And the GI50 [26]?
Its GI50 is 20.2 µM (inactive).

And the GI50 [27]?
The GI50 was 44.7 µM (inactive).

What about the GI50 [28] of the same molecule?
The GI50 was 80.4 µM (inactive).

And the GI50 [29]?
Its GI50 is 23.4 µM (inactive).

And the GI50 [30]?
Its GI50 is 38.1 µM (inactive).

And the GI50 [31]?
Its GI50 is 35.2 µM (inactive).

What about the GI50 [32] of the same molecule?
The GI50 was 40.2 µM (inactive).

What about the GI50 [33] of the same molecule?
The GI50 was 18.2 µM (inactive).

What about the GI50 [34] of the same molecule?
Its GI50 is 54.2 µM (inactive).

What about the GI50 [35] of the same molecule?
The GI50 was 6.81 µM (inactive).

And the GI50 [36]?
Its GI50 is 11.5 µM (inactive).

And the GI50 [37]?
The GI50 was 60.5 µM (inactive).

And the GI50 [38]?
The GI50 was 43.1 µM (inactive).

And the GI50 [39]?
Its GI50 is 25.6 µM (inactive).

And the GI50 [40]?
The GI50 was 33.1 µM (inactive).

What about the GI50 [41] of the same molecule?
Its GI50 is 23 µM (inactive).

What about the GI50 [42] of the same molecule?
Its GI50 is 23 µM (inactive).

What about the GI50 [43] of the same molecule?
Its GI50 is 29.9 µM (inactive).

What about the GI50 [44] of the same molecule?
The GI50 was 23.3 µM.

What about the GI50 [45] of the same molecule?
The GI50 was 31.3 µM (inactive).

And the GI50 [46]?
The GI50 was 34.4 µM (inactive).

What about the GI50 [47] of the same molecule?
The GI50 was 34.7 µM (inactive).

What about the GI50 [48] of the same molecule?
Its GI50 is 43.1 µM (inactive).

What about the GI50 [49] of the same molecule?
The GI50 was 40.7 µM (inactive).

And the GI50 [50]?
Its GI50 is 42 µM (inactive).

For `COc1c(OC(C)C)cc2cc(O)c(C(=O)NC3Cc4ccc(c(Cl)n4)O[C@@H]4C=C5C#C/C(=C\C#CC6OC56C4OC4CC(C)(O)C(O)C(C)O4)C(OC4CC(O)C(N(C)C)C(C)O4)COC3=O)cc2c1OC` (some centres not stated), which GI50 [5] is on record?
Its GI50 is 35.8 µM (inactive).

What about the GI50 [9] of the same molecule?
Its GI50 is > 36.3 µM (inactive).

What about the GI50 [11] of the same molecule?
Its GI50 is > 36.3 µM (inactive).

What about the GI50 [15] of the same molecule?
Its GI50 is > 36.3 µM (inactive).

And the GI50 [16]?
Its GI50 is > 36.3 µM (inactive).

What about the GI50 [18] of the same molecule?
Its GI50 is > 36.3 µM (inactive).

And the GI50 [20]?
The GI50 was > 36.3 µM (inactive).

What about the GI50 [21] of the same molecule?
Its GI50 is > 36.3 µM (inactive).

What about the GI50 [51] of the same molecule?
The GI50 was 11.5 µM (inactive).

And the GI50 [52]?
The GI50 was > 36.3 µM (inactive).

And the GI50 [25]?
Its GI50 is 10.9 µM (inactive).

What about the GI50 [26] of the same molecule?
The GI50 was > 36.3 µM (inactive).

What about the GI50 [31] of the same molecule?
Its GI50 is 2.64 µM (inactive).

What about the GI50 [32] of the same molecule?
Its GI50 is > 36.3 µM (inactive).

And the GI50 [35]?
Its GI50 is > 36.3 µM (inactive).

And the GI50 [39]?
The GI50 was > 36.3 µM (inactive).

And the GI50 [43]?
Its GI50 is > 36.3 µM (inactive).

And the GI50 [46]?
The GI50 was > 36.3 µM (inactive).

And the GI50 [50]?
Its GI50 is > 36.3 µM (inactive).

What does the source list for `CCOC(=O)C#Cc1ccc(C#CC(=O)OCC)cc1`?
GI50 [1]: 2 µM (inactive); GI50 [2]: 3.03 µM (inactive); GI50 [3]: 0.604 µM (active); GI50 [4]: 5.02 µM (inactive); GI50 [5]: 6.85 µM (inactive); GI50 [53]: 2.77 µM (inactive); GI50 [6]: 2.83 µM (inactive); GI50 [7]: 2.74 µM (inactive); GI50 [8]: 5.13 µM (inactive); GI50 [9]: 5.69 µM (inactive); GI50 [54]: 3.37 µM (inactive); GI50 [10]: 3.15 µM (inactive); GI50 [11]: > 21.2 µM (inactive); GI50 [12]: 3.43 µM (inactive); GI50 [13]: 7.74 µM (inactive); GI50 [14]: 1.99 µM (inactive); GI50 [55]: 1.7 µM (inactive); GI50 [15]: 6.43 µM (inactive); GI50 [16]: 1.2 µM (inactive); GI50 [17]: 13.5 µM (inactive); GI50 [18]: 2.84 µM (inactive); GI50 [19]: 2.56 µM (inactive); GI50 [20]: 3.35 µM (inactive); GI50 [21]: 2.62 µM (inactive); GI50 [22]: 6.21 µM (inactive); GI50 [52]: 6.46 µM (inactive); GI50 [23]: 2.9 µM (inactive); GI50 [24]: 2.12 µM (inactive); GI50 [25]: 2.35 µM (inactive); GI50 [26]: 3.3 µM (inactive); GI50 [27]: 3.75 µM (inactive); GI50 [28]: 3.45 µM (inactive); GI50 [29]: 1.66 µM (inactive); GI50 [30]: 5.11 µM (inactive); GI50 [31]: 1.54 µM (inactive); GI50 [32]: 0.421 µM (active); GI50 [33]: 22.1 µM (inactive); GI50 [56]: 3.69 µM (inactive); GI50 [34]: 9.84 µM (inactive); GI50 [35]: 0.818 µM (active); GI50 [36]: 2.89 µM (inactive); GI50 [37]: 11.8 µM (inactive); GI50 [38]: 1.72 µM (inactive); GI50 [57]: 3.81 µM (inactive); GI50 [39]: 0.0381 µM (active); GI50 [40]: 1.02 µM (active); GI50 [41]: 2.9 µM (inactive); GI50 [42]: 2.76 µM (inactive); GI50 [43]: 3.95 µM (inactive); GI50 [44]: 1.81 µM; GI50 [45]: 3.88 µM (inactive); GI50 [58]: 3.21 µM (inactive); GI50 [46]: 3.15 µM (inactive); GI50 [47]: 2.51 µM (inactive); GI50 [48]: 4.35 µM (inactive); GI50 [49]: 3.49 µM (inactive); GI50 [59]: 10.6 µM (inactive); GI50 [50]: 14.2 µM (inactive)
